Measured values from publication PMC7933434, “Entropy-driven binding of gut bacterial β-glucuronidase inhibitors ameliorates irinotecan-induced toxicity” (Communications Biology, 2021).
Values joined by “and” are separate entries in the source; they are usually repeats but may differ in a detail not shown here. Equal values may be shown once.

Tests used:
[1] = biological target: LgGUS (Lactobacillus gasseri GUS) (Lactobacillus gasseri, UniProt Q9AHJ8); assay: GUS inhibition assay, hydrolysis of 4-methylumbelliferyl-β-glucuronide, LgGUS; assay type: biochemical; parameters: GUS activity (hydrolysis rate of MUG) / 1/v: unit not given here; settings: for Ki: LgGUS
LgGUS (Lactobacillus gasseri GUS), sequence (Q9AHJ8 1-598): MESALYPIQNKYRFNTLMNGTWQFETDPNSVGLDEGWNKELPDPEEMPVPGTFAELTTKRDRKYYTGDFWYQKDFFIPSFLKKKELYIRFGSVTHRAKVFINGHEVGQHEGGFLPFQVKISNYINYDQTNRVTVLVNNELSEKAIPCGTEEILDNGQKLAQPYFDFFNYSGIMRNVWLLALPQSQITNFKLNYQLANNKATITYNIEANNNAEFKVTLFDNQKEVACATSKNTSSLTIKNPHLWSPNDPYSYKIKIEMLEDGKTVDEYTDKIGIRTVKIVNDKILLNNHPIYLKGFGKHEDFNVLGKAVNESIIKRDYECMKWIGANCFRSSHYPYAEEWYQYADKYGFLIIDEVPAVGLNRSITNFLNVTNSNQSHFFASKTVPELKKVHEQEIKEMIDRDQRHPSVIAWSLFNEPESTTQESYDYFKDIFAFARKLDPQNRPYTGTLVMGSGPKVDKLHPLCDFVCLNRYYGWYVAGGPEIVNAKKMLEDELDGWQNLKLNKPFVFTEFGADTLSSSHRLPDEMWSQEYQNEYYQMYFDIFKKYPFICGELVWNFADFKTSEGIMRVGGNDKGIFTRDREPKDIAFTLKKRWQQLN

[2] = biological target: T1, GUS activity in live E. coli cells (Escherichia coli, UniProt P05804); assay: GUS activity in live E. coli cells; assay type: cell-based; settings: E. coli cells (OD600 = 1.89) treated for 30 min, then GUS activity measured
T1 construct: endogenous in cells
T1 sequence (P05804 whole entry): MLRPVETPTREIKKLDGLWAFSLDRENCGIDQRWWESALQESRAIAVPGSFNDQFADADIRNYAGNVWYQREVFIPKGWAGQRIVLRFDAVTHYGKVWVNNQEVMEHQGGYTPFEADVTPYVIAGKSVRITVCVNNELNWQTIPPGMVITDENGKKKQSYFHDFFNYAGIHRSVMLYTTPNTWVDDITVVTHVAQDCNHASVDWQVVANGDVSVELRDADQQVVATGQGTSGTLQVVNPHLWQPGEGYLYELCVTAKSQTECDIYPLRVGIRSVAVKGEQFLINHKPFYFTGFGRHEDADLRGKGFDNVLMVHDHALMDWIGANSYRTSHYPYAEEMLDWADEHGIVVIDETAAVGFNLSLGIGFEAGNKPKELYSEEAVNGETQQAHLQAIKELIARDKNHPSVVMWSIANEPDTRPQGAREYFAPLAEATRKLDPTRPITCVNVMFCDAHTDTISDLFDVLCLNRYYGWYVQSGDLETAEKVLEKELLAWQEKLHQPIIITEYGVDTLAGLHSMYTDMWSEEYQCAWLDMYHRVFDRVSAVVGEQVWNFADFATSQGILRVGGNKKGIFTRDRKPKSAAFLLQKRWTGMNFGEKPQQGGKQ
Experimental: To examine if inhibitors 2–4 could inhibit GUS activity in vivo, E. coli cells (OD600 = 1.89) were treated with each of 2–4 for 30 min, after which GUS activity was measured. […]; 3, 18.6 nM; and 4, 3.69 nM (Supplementary Fig. 9a). […]. […] Additionally, to evaluate cell viability, E. coli cultures were treated with ampicillin (positive control), DMSO, or inhibitors 2–4 (100 μM) for 6 h.
Supplementary Figure 9 Inhibitors 2–4 sho w in hi biti on ag ai n st G US acti vity in l i ve E. co li cell s. (a) GUS activity was measured in live E. coli. Af t e r E. coli were incubated with DMSO or an inhibitor ( 2–4), GUS activity was measured using 4-methylumbelliferyl-β-glucuronide as the substrate. The release of fluorescent 4-methylumbelliferone was detected at 445 nm (excitation, 345 nm). Compared with the negative c ont rol (DMSO ), […]
[…]. (b) Colony formation assay. None of the inhibitors affected bacterial growth. As a negative control, E. coli cells were incubated with ampicillin (100 μg/mL). Results are expressed as the mean of triplicate samples ± SEM.
(1 picture or pasted object on this page, not shown here)

[3] = parameters: method as in PMID 18537837; settings: endocyclic amine; cited from earlier work
[4] = 50 mM sodium acetate pH 4.5, 37 °C
[5] = [Inhibitor 4] = 0.1 μM, [MUG] 0.0375 mM
[6] = [Inhibitor 4] = 0.1 μM, [MUG] 0.05 mM
[7] = [Inhibitor 4] = 0.1 μM, [MUG] 0.075 mM
[8] = [Inhibitor 4] = 0.1 μM, [MUG] 0.15 mM
[9] = [Inhibitor 4] = 0.2 μM, [MUG] 0.0375 mM
[10] = [Inhibitor 4] = 0.2 μM, [MUG] 0.05 mM
[11] = [Inhibitor 4] = 0.2 μM, [MUG] 0.075 mM
[12] = [Inhibitor 4] = 0.2 μM, [MUG] 0.15 mM
[13] = [Inhibitor 4] = 0.4 μM, [MUG] 0.0375 mM
[14] = [Inhibitor 4] = 0.4 μM, [MUG] 0.05 mM
[15] = [Inhibitor 4] = 0.4 μM, [MUG] 0.075 mM
[16] = [Inhibitor 4] = 0.4 μM, [MUG] 0.15 mM
[17] = [Inhibitor 4] = 0.6 μM, [MUG] 0.0375 mM
[18] = [Inhibitor 4] = 0.6 μM, [MUG] 0.05 mM
[19] = [Inhibitor 4] = 0.6 μM, [MUG] 0.075 mM
[20] = [Inhibitor 4] = 0.6 μM, [MUG] 0.15 mM

With `CCCCCCCCC[C@@H]1NC[C@@H](O)[C@H](O)[C@H]1C(=O)O` [Inhibitor 4, C6-nonyl UIFG] the Ki [1] was 270 nM, the Ki [1, 4] was 270 ± 74 nM and the 1/v [1, 5] was 0.07099 and 0.06547 and 0.07752. For the same compound, the “GUS activity (hydrolysis rate of MUG)” value [1, 5] was 17345 and 18805 and 15888, the 1/v [1, 6] was 0.08248 and 0.08036 and 0.08633 and the “GUS activity (hydrolysis rate of MUG)” value [1, 6] was 14936 and 15328 and 14270. The 1/v [1, 7] was 0.1044 and 0.09961 and 0.1132, the “GUS activity (hydrolysis rate of MUG)” value [1, 7] was 11804 and 12374 and 10895 and the 1/v [1, 8] was 0.1278 and 0.1207 and 0.1294. The “GUS activity (hydrolysis rate of MUG)” value [1, 8] was 9649 and 10216 and 9535, the 1/v [1, 9] was 0.05896 and 0.0562 and 0.06114 and the “GUS activity (hydrolysis rate of MUG)” value [1, 9] was 20877 and 21902 and 20134. The 1/v [1, 10] was 0.07315 and 0.0639 and 0.07306, the “GUS activity (hydrolysis rate of MUG)” value [1, 10] was 16834 and 19266 and 16856 and the 1/v [1, 11] was 0.08853 and 0.08384 and 0.0916. For the same compound, the “GUS activity (hydrolysis rate of MUG)” value [1, 11] was 13918 and 14693 and 13452, the 1/v [1, 12] was 0.113 and 0.1097 and 0.1193 and the “GUS activity (hydrolysis rate of MUG)” value [1, 12] was 10909 and 11240 and 10335. The 1/v [1, 13] was 0.04482 and 0.03964 and 0.04854, the “GUS activity (hydrolysis rate of MUG)” value [1, 13] was 27452 and 31030 and 25348 and the 1/v [1, 14] was 0.06247 and 0.0466 and 0.0623. The “GUS activity (hydrolysis rate of MUG)” value [1, 14] was 19707 and 26401 and 19760, the 1/v [1, 15] was 0.07433 and 0.06177 and 0.07489 and the “GUS activity (hydrolysis rate of MUG)” value [1, 15] was 16569 and 19929 and 16445. For the same compound, the 1/v [1, 16] was 0.09796 and 0.08796 and 0.1041, the “GUS activity (hydrolysis rate of MUG)” value [1, 16] was 12581 and 14006 and 11837 and the 1/v [1, 17] was 0.03481 and 0.03381 and 0.03972. The “GUS activity (hydrolysis rate of MUG)” value [1, 17] was 35328 and 36376 and 30969, the 1/v [1, 18] was 0.04379 and 0.03975 and 0.04826 and the “GUS activity (hydrolysis rate of MUG)” value [1, 18] was 28094 and 30946 and 25494. The 1/v [1, 19] was 0.05918 and 0.05295 and 0.06497, the “GUS activity (hydrolysis rate of MUG)” value [1, 19] was 20799 and 23242 and 18949 and the 1/v [1, 20] was 0.08688 and 0.08016 and 0.09205. For the same compound, the “GUS activity (hydrolysis rate of MUG)” value [1, 20] was 14180 and 15366 and 13387 and the IC50 [2] was 3.69 nM.
In the case of `O=C(O)[C@H]1CNC[C@@H](O)[C@@H]1O` [Inhibitor 1, Uronic isofagomine], the Ki [1, 4] is listed as 110 ± 33 nM and the pKa [3] is listed as 8.0.
